Laboratory results published in publication PMC12356528, “Modular Synthetic Platform for the Elaboration of Fragments in Three Dimensions for Fragment-Based Drug Discovery” (Journal of the American Chemical Society, 2025).
≈ marks a conversion by molar mass, not a printed value. Read-outs that look alike come from different tables or passages of the source.

Assays:
[1] = DMPK Wave1: lipophilicity (measured logD); format: physicochemical
[2] = DMPK Wave1: aqueous solubility; format: physicochemical
[3] = DMPK Wave1: metabolic stability in rat hepatocytes; format: in vitro ADME; conditions: rat hepatocytes (RH)
[4] = DMPK Wave1: metabolic stability in human liver microsomes; format: in vitro ADME; conditions: human liver microsomes (HLM)

| logD [1] | solubility [2] [µM] | solubility ([2]; aqueous) [µM] | metabolic stability (in words) [3] | metabolic stability (in words) [4] | Compound |
| --- | --- | --- | --- | --- | --- |
| -0.4 | 881 (≈ 211 µg/mL) | – | – | – | CS(=O)(=O)N1CCC2CC21c1cncnc1 (stereo not drawn) [Compound 86] |
| 0.2 | 931 (≈ 249 µg/mL) | – | – | – | CS(=O)(=O)N1CCC2(CC1)CC2c1cncnc1 (stereo not drawn) [Compound 87] |
| 1.6 | – | 996 (≈ 284 µg/mL) | – | – | C=CC(=O)N1C[C@H](Nc2ncnc3[nH]ccc23)CC[C@@H]1C [Ritlecitinib, 1-((2S,5R)-5-((7H-Pyrrolo[2,3-d]pyrimidin-4-yl)amino)-2-methylpiperidin-1-yl)prop-2-en-1-one, reference compound] |
| 0.1 | 887 (≈ 274 µg/mL) | – | good metabolic stability | good metabolic stability | c1ncc(C2CC23CCN(c2ccc4c(c2)OCO4)CC3)cn1 (stereo not drawn) [Compound 82] |
| 0.1 | – | 823 (≈ 208 µg/mL) | – | – | CS(=O)(=O)N1CCC[C@@H]2[C@@H](c3cncnc3)[C@@H]21 [Compound 94] |
| 3.1 | 100 (≈ 36.1 µg/mL) | – | lower metabolic stability | lower metabolic stability | COc1cc([C@H]2[C@@H]3CN(C(=O)Cc4c[nH]c5ccccc45)CC[C@@H]32)ccn1 [Compound 81] |
| 3.6 | 49 (≈ 18.9 µg/mL) | – | lower metabolic stability | lower metabolic stability | Cc1noc(C)c1S(=O)(=O)N1CCC2(CC1)CC2c1cnc2[nH]ccc2c1 (stereo not drawn) [Compound 78] |
| -0.6 | 913 (≈ 218 µg/mL) | – | – | – | CS(=O)(=O)N1CC2(CC2c2cncnc2)C1 (stereo not drawn) [Compound 88] |

| Compound | logD [1] | solubility [2] [µM] | solubility ([2]; aqueous) [µM] | metabolic stability (in words) [3] | metabolic stability (in words) [4] |
| --- | --- | --- | --- | --- | --- |
| CS(=O)(=O)N1C2CCC1CC1(C2)CC1c1cncnc1 (stereo not drawn) [Compound 91] | 0.5 | > 981 | – | – | – |
